Drawing on ChEMBL document CHEMBL1134004, “Synthesis and in vitro cytotoxicity of novel long chain busulphan analogues” (Bioorg Med Chem Lett, 2001), this text covers IC50 for three compounds.

SMILES strings stand for the structures.

Common to all, as to assay type: functional, cell-based
In one test the test system is A2780. In words: In vitro cytotoxicity causing 50% growth inhibition was determined against […] (human ovarian cancer)cell line.
The subject of the next test is Colon 26. Kind of test: In vitro cytotoxicity causing 50% growth inhibition was determined against C26-10 (murine colon carcinoma) cell line. The settings on record: Mus musculus.
The subject of another test is H322. Kind of test: In vitro cytotoxicity causing 50% growth inhibition was determined against H322 (human non small cell lung cancer) cells. Conditions: NCI-H322.
The subject of test [1] is Lewis lung carcinoma cell line. In words: In vitro cytotoxicity causing 50% growth inhibition was determined against LL (murine non small cell lung cancer) cell line. The settings on record: Mus musculus.
Another test relates to UMSCC22B. Kind of test: In vitro cytotoxicity causing 50% growth inhibition was determined against 22B (human head and neck squamous) cell line.
Another test deals with WiDr. Kind of test: In vitro cytotoxicity causing 50% growth inhibition was determined against WiDr (human colon carcinoma) cell line.

The IC50 is the point on the concentration scale where inhibition reaches its midpoint. Consider `CCCCCCCCCCCCCCC(CCOS(C)(=O)=O)COS(C)(=O)=O` (stereo not drawn), for which the IC50 is 25.9 µM in the test on A2780; 26.3 µM in the test with Colon 26; 25.1 µM with H322; 20.8 µM in test [1]; 26.4 µM in the test with UMSCC22B; 24.9 µM in the test with WiDr.

As for `CCCCCCCCCCCCCCC(COS(C)(=O)=O)OS(C)(=O)=O` (stereo not drawn), the 50% inhibitory concentration (IC50) with A2780 was 45.5 µM; in the test with Colon 26, 31 µM; in the test on H322, 59.7 µM; in test [1], 28.4 µM; in the test on UMSCC22B it was 46.5 µM; in the test on WiDr it was 25.6 µM.

As for `CS(=O)(=O)OCCCCOS(C)(=O)=O` [BUSULFAN], the IC50 in the test on A2780 was more than 100 µM; with Colon 26, 92.5 µM; in the test on H322, more than 100 µM; in test [1] it was more than 100 µM; in the test with UMSCC22B, more than 100 µM; in the test on WiDr, more than 100 µM.
